Data reported in patent US5753704A, “Therapeutic compositions comprising unsaturated dioic acids or derivatives thereof” (Unichema Chemie B.V., priority 1992, dated 1998).
Entries after “also recorded” stand apart in the source; their conditions may differ. Values belong to the compound of their own block, whether it stands above or below them.

Columns and labels:
[1] = system: Brevibacterium epidermidis; test: MIC, agar dilution technique (Table 3); assay type: cell-based
Method: (§1) The Minimum Inhibitory Concentration (MIC) of each of various unsaturated dicarboxylic acid mixtures was determined in the presence and absence of 10% Intralipid (Kabi Pharmacia, Inc.) using the agar dilution technique for susceptibility of 32 strains of Propionibacterium acnes and of 32 strains of various genera of aerobic bacteria. The method was as set out below.
(§2) A 5% stock solution for each agent was prepared by adding 10 grams of the dioic acid material to 200 milliliters of double strength Tryptic Soy Broth (TSB), (Baltimore Biological Laboratories). The pH of each solution was adjusted to 7.0±0.2 with sodium hydroxide.
(§3) For each organic acid two sets of 200 ml capacity bottle/flasks were numbered 1 to 9. To each bottle was added 50 cc of double strength TSB. From the 5% stock solution, 50 cc of TSB were transferred to bottles #1 and #2. Serial transfers of 50 cc are made from bottle #2 through to bottle #8. Bottle #9 of each set contained only 50 cc of double strength TSB, without any dicarboxylic acid. To all 18 bottles were added 2 grams of granulated agar (BBL).
(§4) All bottles were autoclaved at 121° C., 15 psi for 15 minutes and then held at 50° C. in a water bath.
(§5) To one set of bottles #1-9 were added 50 cc of hot, sterile water. The bottles were swirled to mix the contents and 25 cc was poured into each of four petri dishes and allowed to solidify. To the second set of bottles were added 50 cc of Intralipid (pre-warmed to 50° C). The contents were then mixed and poured as above. Standard inocula of the test organisms were prepared by matching the bacterial suspension in 0.85% PSS (physiological saline solution) to a 0.5 McFarland Standard and diluting ten-fold to yield 10^7 CFU (colony forming units). The inocula were loaded into 32 wells of a steers replicator. The multi-prong inoculator delivers 0.001 to 0.002 cc resulting in a final inoculum of 10^4 CFU per spot.
(§6) Plates were inoculated from the lowest to highest concentration (to reduce the effects of "carry-over" of the inoculum), and allowed to dry. The plates were then inverted and incubated at 35° C. for 24 hours. Plates inoculated with Propionibacterium acnes strains were incubated under anaerobic conditions for seven days at 35° C.
(§7) The agent-free control plates (#9) were examined at the end of the incubation for viability and signs of contamination. End-point MIC values were determined by observing the plate of lowest concentration of agent that inhibited visible micro-organism growth.

[2] = system: Corynebacterium minutissium; test: MIC, agar dilution technique (Table 3); assay type: cell-based
Method: as §1, §2, §3, §4, §5, §6, §7

Escherichia coli = test: MIC, agar dilution technique (Table 3); assay type: cell-based; conditions: Escherichia coli ATCC 25922
Method: as §1, §2, §3, §4, §5, §6, §7

Micrococcus luteus = test: MIC, agar dilution technique (Table 3); assay type: cell-based
Method: as §1, §2, §3, §4, §5, §6, §7

Micrococcus sedentarius = test: MIC, agar dilution technique (Table 3); assay type: cell-based; conditions: Micrococcus sedentarius ATCC 27574
Method: as §1, §2, §3, §4, §5, §6, §7

Propionibacterium acnes = test: MIC, agar dilution technique (Table 3); assay type: cell-based
Method: as §1, §2, §3, §4, §5, §6, §7

Pseudomonas aeruginosa = test: MIC, agar dilution technique (Table 3); assay type: cell-based; conditions: Pseudomonas aeruginosa ATCC 27853
Method: as §1, §2, §3, §4, §5, §6, §7

Staphylococcus aureus = test: MIC, agar dilution technique (Table 3); assay type: cell-based
Method: as §1, §2, §3, §4, §5, §6, §7

[3] = system: Staphylococcus epidermidis; test: MIC, agar dilution technique (Table 3); assay type: cell-based
Method: as §1, §2, §3, §4, §5, §6, §7

Candida albicans = test: MIC, agar dilution technique (Table 3); assay type: cell-based; conditions: Candida albicans ATCC 18804
P. ACNES ATCC 25746 = test: MIC's for long chain dioic acids against P. acnes (Table 4); assay type: cell-based, Propionibacterium acnes; conditions: for MIC: P. acnes ATCC 25746
Method: as §1, §2, §3, §4, §5
Plates were inoculated from the lowest to highest concentration (to reduce the effects of "carry-over" of the inoculum), and allowed to dry. The plates were then inverted and incubated at 35° C. for 24 hours. […]
as §7
A similar experiment was performed, using the same method, to compare the degree of inhibitory activity (for P. acnes) of azelaic acid, the C18:1 dioic acid (obtained from a substrate comprising oleic acid), a mixture of C18.1 fatty (mono-carboxylic) acid, the corresponding C18:1 and C18:2 dioic acids (obtained from a substrate comprising Linoleic acid), and the C16:1 dioic acid (obtained from a substrate comprising palmitoleic acid). The MICs for azelaic acid and the C18.1 dioic acid were essentially as before, confirming the previous results. The corresponding fatty acid had very little activity.
In experiment 4, the degree of inhibition of the azelaic acid control, and therefore of the test samples also, was slightly less than that observed in previous experiments.

thioredoxin reductase = conditions: cited from earlier work
[4] = system: 32 strains of Propionibacterium acnes and 32 strains of various genera of aerobic bacteria; test: Antimicrobial activity, summary over the range of micro-organisms; assay type: cell-based
Method: as §1, §2
as §3, with “(BBL). […]” for “(BBL).”
The agent-free control plates (#9) were examined at the end of the incubation for viability and signs of contamination. End-point MIC values were determined by observing the plate of lowest concentration of agent that inhibited visible micro-organism growth. […]

[5] = Brevibacterium epidermidis ATCC 35514
[6] = Brevibacterium epidermidis NCDO 2285
[7] = Corynebacterium minutissium ATCC 23347
[8] = Corynebacterium minutissium ATCC 23348
[9] = Corynebacterium minutissium ATCC 23349
[10] = Propionibacterium acnes ATCC 6919
[11] = Propionibacterium acnes ATCC 29399
[12] = Staphylococcus aureus ATCC 25923
[13] = Staphylococcus aureus ATCC 29213
[14] = Staphylococcus aureus ATCC 35556
[15] = Staphylococcus epidermidis ATCC 14490
[16] = Staphylococcus epidermidis ATCC 31432
[17] = Staphylococcus epidermidis ATCC 35894
[18] = Expt. 4, increased incubation period of 18 days

Structure (SMILES): O=C(O)CCCCCCCC(=O)O [Azelaic acid, azelaic acid, reference compound]
MIC [1, 5]: > 2.5% | MIC [1, 6]: > 2.5% | MIC [2, 7]: > 2.5% | MIC [2, 8]: > 2.5% | MIC [2, 9]: > 2.5% | MIC (Escherichia coli): 2.5% | MIC (Micrococcus luteus; Micrococcus luteus ATCC 9341): > 2.5% | MIC (Micrococcus luteus; Micrococcus luteus ATCC 15957): > 2.5% | MIC (Micrococcus luteus; Micrococcus luteus ATCC 27141): 2.5% | MIC (Micrococcus sedentarius): 2.5% | MIC (Propionibacterium acnes; [10]): 1.25% | MIC (Propionibacterium acnes; [11]): 1.25% | MIC (Pseudomonas aeruginosa): > 2.5% | MIC (Staphylococcus aureus; [12]): 2.5% | MIC (Staphylococcus aureus; [13]): 2.5% | MIC (Staphylococcus aureus; [14]): 2.5% | MIC [3, 15]: > 2.5% | MIC [3, 16]: > 2.5% | MIC [3, 17]: > 2.5% | MIC (Candida albicans): > 2.5% | MIC (P. ACNES ATCC 25746; Expt. 1, incubation 7 days): 5% | MIC (P. ACNES ATCC 25746; Expt. 2, incubation 7 days): 5% | MIC (P. ACNES ATCC 25746; Expt. 3, incubation 7 days): 5% | MIC (P. ACNES ATCC 25746; [18]): > 5% | inhibition of thioredoxin reductase (thioredoxin reductase): inhibits thioredoxin reductase

Structure (SMILES): CCCCCCCC/C=C\CCCCCCCC(=O)O [C18:1 Fatty acid, oleic acid, reference compound]
inhibitory activity compared with azelaic acid (P. ACNES ATCC 25746; P. acnes): less active than azelaic acid | MIC (P. ACNES ATCC 25746; Expt. 3, incubation 7 days): > 5%

MIC [1, 5]: 0.15% | MIC ([1]; Brevibacterium epidermidis ATCC 35514, + "Intralipid"): 0.15% | MIC [1, 6]: 0.15% | MIC ([1]; Brevibacterium epidermidis NCDO 2285, + "Intralipid"): 0.15% | MIC [2, 7]: 0.15% | MIC ([2]; Corynebacterium minutissium ATCC 23347, + "Intralipid"): 0.15% | MIC [2, 8]: 0.15% | MIC ([2]; Corynebacterium minutissium ATCC 23348, + "Intralipid"): 0.15% | MIC [2, 9]: 0.15% | MIC ([2]; Corynebacterium minutissium ATCC 23349, + "Intralipid"): 0.15% | MIC (Escherichia coli): > 2.5% | MIC (Escherichia coli; + "Intralipid"): > 2.5% | MIC (Micrococcus luteus; Micrococcus luteus ATCC 9341): 0.15% | MIC (Micrococcus luteus; Micrococcus luteus ATCC 9341, + "Intralipid"): 0.07% | MIC (Micrococcus luteus; Micrococcus luteus ATCC 15957): 0.15% | MIC (Micrococcus luteus; Micrococcus luteus ATCC 15957, + "Intralipid"): 0.07% | MIC (Micrococcus luteus; Micrococcus luteus ATCC 27141): 0.15% | MIC (Micrococcus luteus; Micrococcus luteus ATCC 27141, + "Intralipid"): 0.07% | MIC (Micrococcus sedentarius): 0.15% | MIC (Micrococcus sedentarius; + "Intralipid"): 0.07% | MIC (Propionibacterium acnes; [10]): 0.04% | MIC (Propionibacterium acnes; Propionibacterium acnes ATCC 6919, + "Intralipid"): 0.02% | MIC (Propionibacterium acnes; [11]): 0.04% | MIC (Propionibacterium acnes; Propionibacterium acnes ATCC 29399, + "Intralipid"): 0.02% | MIC (Pseudomonas aeruginosa): > 2.5% | MIC (Pseudomonas aeruginosa; + "Intralipid"): > 2.5% | MIC (Staphylococcus aureus; [12]): 0.07% | MIC (Staphylococcus aureus; Staphylococcus aureus ATCC 25923, + "Intralipid"): 0.15% | MIC (Staphylococcus aureus; [13]): 0.15% | MIC (Staphylococcus aureus; Staphylococcus aureus ATCC 29213, + "Intralipid"): 0.31% | MIC (Staphylococcus aureus; [14]): 0.07% | MIC (Staphylococcus aureus; Staphylococcus aureus ATCC 35556, + "Intralipid"): 0.31% | MIC [3, 15]: 0.31% | MIC ([3]; Staphylococcus epidermidis ATCC 14490, + "Intralipid"): 0.31% | MIC [3, 16]: 0.31% | MIC ([3]; Staphylococcus epidermidis ATCC 31432, + "Intralipid"): 0.31% | MIC [3, 17]: 0.31% | MIC ([3]; Staphylococcus epidermidis ATCC 35894, + "Intralipid"): 0.31% | MIC (Candida albicans): > 2.5% | MIC (Candida albicans; + "Intralipid"): > 2.5% | MIC (P. ACNES ATCC 25746; Expt. 1, incubation 7 days): 0.04% | MIC (P. ACNES ATCC 25746; Expt. 2, incubation 7 days): 0.04% | MIC (P. ACNES ATCC 25746; Expt. 3, incubation 7 days): 0.04% | MIC (P. ACNES ATCC 25746; [18]): 0.08%
Structure (SMILES): O=C(O)CCCCCCC/C=C\CCCCCCCC(=O)O [C18:1 dioic acid ex Oleic acid]
activity relative to azelaic acid (P. ACNES ATCC 25746; P. acnes, fold of the activity of azelaic acid): ~100 × | effect of the presence or absence of "Intralipid" on MIC ([4]; 10% Intralipid, listed as C18:1 mono-unsaturated compound): increased the MIC for taph. aureus; also recorded: decreased the MIC for P. acnes and M. luteus | anti-microbial activity compared with azelaic acid ([4]; Table 3 micro-organisms): many times greater than that for azelaic acid

MIC (P. ACNES ATCC 25746; [18]): 0.16%
Structure (SMILES): O=C(O)CCCCCC=CCCCCCCCC(=O)O [C16:1 dioic acid ex Palmitoleic acid]
